Test results reported in patent publication US8420627B2, “Nasal, wound and skin formulations and methods for control of antibiotic-resistant staphylococci and other gram-positive bacteria” (priority 2009, dated 2013).
“Also recorded” adds a separate entry of the source. Where two headings read alike, the source gives them in different places.

Tests used:
MRSA = assay: Topical treatment of MRSA lesions in patients (case examples); assay type: in vivo, human; settings: treatment before the formulation ointment; single patients
Source text: EXAMPLES OF SUCCESSFUL TREATMENT OF MRSA LESIONS USING THE NOVEL FORMULATIONS OF THE INVENTION ARE PROVIDED BELOW

Staphylococcus = settings: cited from earlier work
[1] = tested on: Staphylococcus aureus MRSA, ATCC 33591; assay: in vitro Minimum Inhibitory Concentration (MIC), growth/no growth in dilution tubes; assay type: cell-based; settings: for MIC of Glycerol monolaurate in two-component combination: combined with 40 μg/mL Dodecanol; for Concentration of the component at which bactericidal activity is still maintained in the three-component combination: dodecanol, glycerol monolaurate and benzoic acid combined; on Growth or No Growth: key: Growth (+); No Growth (0)
Experimental: (§1) Now reported are in vitro Minimum Inhibitory Concentrations (MIC) for dodecanol against Staphylococcus aureus MRSA, ATCC 33591, Staphylococcus aureus VISA (Vancomycin intermediate sensitivity) ATCC 700699, and Enterococcus faecalis ATCC 51299 (formerly Streptococcus faecalis VREF (vancomycin resistant)). One tenth of a cc of dodecanol was diluted with 50 cc of polyethylene glycol 400 and 449.9 cc of sterilized deionized water, followed by five doubling dilutions. […] When combined with the other components of the formulation, a synergistic effect is seen such that bactericidal activity is still maintained even when the concentration of dodecanol is reduced to 20 μg/mL.
(§2) Now reported are in vitro Minimum Inhibitory Concentrations (MIC) for glycerol monolaurate against Staphylococcus aureus MRSA, ATCC 33591, Staphylococcus aureus VISA (Vancomycin intermediate sensitivity) ATCC 700699 and Vancomycin resistant Enterococcus faecalis ATCC 51299 (formerly Streptococcus faecalis VRSF). […] When combined with the other components of the formulation a synergistic effect is seen such that bactericidal activity is still maintained even when the concentration of glycerol monolaurate is reduced to 15 μg/mL.
The Minimum Inhibitory Concentration (MIC) for benzoic acid was determined against Staphylococcus aureus MRSA.
The MIC for dodecanol was experimentally determined to be about 83 micrograms/mL, the MIC for glycerol monolaurate was experimentally determined to be about 62.5 micrograms/mL, and the MIC for benzoic acid was experimentally determined to be about 1250 micrograms/mL. […] When a third component, the organic acid benzoic acid, was added to the formulation, the MICs for all three were much lower.

[2] = tested on: Staphylococcus aureus VISA (Vancomycin intermediate sensitivity) ATCC 700699; assay: as above; assay type: cell-based; settings: for MIC: Staphylococcus aureus, read-out: MIC (Minimum Inhibitory Concentration)
Experimental: as §1, §2

[3] = tested on: Vancomycin resistant Enterococcus faecalis ATCC 51299; assay: as above; assay type: cell-based; on Growth or No Growth: key: Growth (+); No Growth (0)
Experimental: as §1, §2

[4] = tested on: Staphylococcus aureus MRSA, ATCC 33591; assay: In vitro time-kill, one minute contact; assay type: cell-based; settings: for CFU Recovered: Initial Count 5.6 × 10^6
Experimental: (§3) Dodecanol and glycerol monolaurate were diluted to 2,000 micrograms/mL and then diluted to the following concentrations: Dodecanol: 100 micrograms/mL and glycerol monolaurate: 250 micrograms/mL. Each challenge organism was confirmed by Gram stain and colony morphology. […] Log reductions and percent reductions presented in Tables VII and VIII below were calculated using the following equations: […]
The nasal formulation of the invention was tested against S. aureus MRSA, ATCC 33591. The contact time for the formulation with the bacteria was one minute, after which time, an 8.3 log reduction in bacterial count was observed.
The hand and body wash formulation of the invention was tested against S. aureus MRSA, ATCC 33591 and MDR Klebsiella pneumoniae ATCC CI-2004.

[5] = tested on: Enterococcus faecalis ATCC 51299; assay: In vitro time-kill, one minute contact; assay type: cell-based; settings: for CFU Recovered: Initial Count 5.6 × 10^6
Experimental: as §3

[6] = tested on: Staphylococcus aureus VISA, ATCC 700699; assay: In vitro time-kill, one minute contact; assay type: cell-based; settings: for CFU Recovered: Initial Count 5.6 × 10^6
Experimental: as §3

S. aureus = settings: Glycerol Esters of Fatty Acids; cited from earlier work
[7] = Irritation of mucous membranes; settings: low concentrations (83 micrograms/mL)
[8] = Glycerol Monolaurate at 250 μg/mL
Wherever Growth or No Growth is given: key: Growth (+); No Growth (0).

Structure (SMILES): C/C(=C\C(=O)OCCCCCCCCC(=O)O)C[C@@H]1OC[C@H](C[C@@H]2O[C@H]2[C@@H](C)[C@H](C)O)[C@@H](O)[C@H]1O [mupirocin]
- Clinical outcome of prior treatment of MRSA lesions (MRSA): the MRSA was still present in the patient's sinuses; also recorded: unsuccessfully treated

Structure (SMILES): CCCCCCCCO [C-8]
- Effective Bactericidal Concentration of Primary Alcohols against Staphylococcus (Staphylococcus): 800 Micrograms/mL

Structure (SMILES): CCCCCCCCCO [C-9]
- Effective Bactericidal Concentration of Primary Alcohols against Staphylococcus (Staphylococcus): 200 Micrograms/mL

Structure (SMILES): CCCCCCCCCCCC(=O)OCC(O)CO (centres unmarked) [Glycerol Monolaurate, glycerol monolaurate]
- MIC (Minimum Inhibitory Concentration) ([1]; S. aureus MRSA, glycerol monolaurate alone): 62.5 micrograms/mL
- MIC (Minimum Inhibitory Concentration) ([1]; S. aureus MRSA, glycerol monolaurate alone, listed as Glycerol monolaurate): 62.5 micrograms/mL
- MIC ([1]; Staphylococcus aureus, read-out: MIC (Minimum Inhibitory Concentration), S. aureus MRSA, glycerol monolaurate alone): 62.5 µg/mL
- MIC of Glycerol monolaurate in two-component combination ([1]; S. aureus MRSA, listed as Glycerol monolaurate): 30 μg/mL Glycerol monolaurate
- MIC of Glycerol monolaurate in two-component combination ([1]; S. aureus MRSA, listed as glycerol monolaurate): ~30 µg/mL
- Concentration of the component at which bactericidal activity is still maintained in the three-component combination ([1]; MRSA): 15 µg/mL
- Growth or No Growth ([1]; final concentration 31.25 micrograms/mL, S. aureus MRSA): +
- Growth or No Growth ([1]; final concentration 62.5 micrograms/mL, S. aureus MRSA): 0
- Growth or No Growth ([1]; final concentration 125 micrograms/mL, S. aureus MRSA): 0
- Growth or No Growth ([1]; final concentration 250 micrograms/mL, S. aureus MRSA): 0
- MIC [2]: 62.5 µg/mL
- Growth or No Growth ([2]; final concentration 31.25 micrograms/mL, S. aureus VISA): +
- Growth or No Growth ([2]; final concentration 62.5 micrograms/mL, S. aureus VISA): 0
- Growth or No Growth ([2]; final concentration 125 micrograms/mL, S. aureus VISA): 0
- Growth or No Growth ([2]; final concentration 250 micrograms/mL, S. aureus VISA): 0
- MIC ([3]; Enterococcus faecalis, ATCC51299, read-out: MIC (Minimum Inhibitory Concentration)): 125 µg/mL
- Growth or No Growth ([3]; final concentration 31.25 micrograms/mL, Enterococcus faecalis): +
- Growth or No Growth ([3]; final concentration 62.5 micrograms/mL, Enterococcus faecalis): +
- Growth or No Growth ([3]; final concentration 125 micrograms/mL, Enterococcus faecalis): 0
- Growth or No Growth ([3]; final concentration 250 micrograms/mL, Enterococcus faecalis): 0
- % Reduction [4, 8]: 100%
- Log Reduction [4, 8]: 6.75
- CFU Recovered [4, 8]: <5 × 10^0 CFU per mL
- % Reduction [5, 8]: 100%
- Log Reduction [5, 8]: 7.04
- CFU Recovered [5, 8]: <5 × 10^0 CFU per mL
- % Reduction [6, 8]: 100%
- Log Reduction [6, 8]: 7.1
- CFU Recovered [6, 8]: <5 × 10^0 CFU per mL
- Minimum inhibitory concentration for Staphylococcus (S. aureus): 250 micrograms/mL

Structure (SMILES): CCCCCCCCCCCCC(=O)OCC(O)CO (centres unmarked) [13 Carbon Mono, Tridecanoyl monoglyceride]
- Minimum inhibitory concentration for Staphylococcus (S. aureus): No Inhibition

Structure (SMILES): CCCCCCCCCCCCO [Dodecanol, 1-dodecanol]
- MIC ([1]; Staphylococcus aureus, S. aureus MRSA, dodecanol alone, read-out: MIC (Minimum Inhibitory Concentration)): 83 µg/mL
- MIC of Dodecanol in two-component combination ([1]; combined with 30 μg/mL Glycerol monolaurate, S. aureus MRSA): 40 μg/mL Dodecanol
- Concentration of the component at which bactericidal activity is still maintained in the three-component combination ([1]; MRSA): 20 µg/mL
- Growth or No Growth ([1]; final concentration 2.53125 μg/mL, S. aureus MRSA): +
- Growth or No Growth ([1]; final concentration 5.0625 μg/mL, S. aureus MRSA): +
- Growth or No Growth ([1]; final concentration 10.125 μg/mL, S. aureus MRSA): +
- Growth or No Growth ([1]; final concentration 20.25 μg/mL, S. aureus MRSA): +
- Growth or No Growth ([1]; final concentration 41.5 μg/mL, S. aureus MRSA): +
- Growth or No Growth ([1]; final concentration 83 μg/mL, S. aureus MRSA): 0
- MIC ([2]; S. aureus VISA, dodecanol alone): 83 µg/mL
- Growth or No Growth ([2]; final concentration 2.53125 μg/mL, S. aureus VISA): +
- Growth or No Growth ([2]; final concentration 5.0625 μg/mL, S. aureus VISA): +
- Growth or No Growth ([2]; final concentration 10.125 μg/mL, S. aureus VISA): +
- Growth or No Growth ([2]; final concentration 20.25 μg/mL, S. aureus VISA): +
- Growth or No Growth ([2]; final concentration 41.5 μg/mL, S. aureus VISA): +
- Growth or No Growth ([2]; final concentration 83 μg/mL, S. aureus VISA): 0
- MIC ([3]; Enterococcus faecalis, ATCC 51299 / VRE, E. faecalis VRE, dodecanol alone, read-out: MIC (Minimum Inhibitory Concentration)): 83 µg/mL
- Growth or No Growth ([3]; final concentration 2.53125 μg/mL, E. faecalis VRE): +
- Growth or No Growth ([3]; final concentration 5.0625 μg/mL, E. faecalis VRE): +
- Growth or No Growth ([3]; final concentration 10.125 μg/mL, E. faecalis VRE): +
- Growth or No Growth ([3]; final concentration 20.25 μg/mL, E. faecalis VRE): +
- Growth or No Growth ([3]; final concentration 41.5 μg/mL, E. faecalis VRE): +
- Growth or No Growth ([3]; final concentration 83 μg/mL, E. faecalis VRE): 0
- % Reduction ([4]; Dodecanol at 100 μg/mL): 100%
- Log Reduction ([4]; Dodecanol at 100 μg/mL): 6.75
- CFU Recovered ([4]; Dodecanol at 100 μg/mL): <5 × 10^0 CFU per mL
- % Reduction ([5]; Dodecanol at 100 μg/mL): 100%
- Log Reduction ([5]; Dodecanol at 100 μg/mL): 7.04
- CFU Recovered ([5]; Dodecanol at 100 μg/mL): <5 × 10^0 CFU per mL
- % Reduction ([6]; Dodecanol at 100 μg/mL): 100%
- Log Reduction ([6]; Dodecanol at 100 μg/mL): 7.18
- CFU Recovered ([6]; Dodecanol at 100 μg/mL): <5 × 10^0 CFU per mL
- Irritating effects on the mucous membranes [7]: no irritating effects
- Effective Bactericidal Concentration of Primary Alcohols against Staphylococcus (Staphylococcus): 12.5 Micrograms/mL

Structure (SMILES): CCCCCCCCCCO [C-10]
- Effective Bactericidal Concentration of Primary Alcohols against Staphylococcus (Staphylococcus): 50 Micrograms/mL

Structure (SMILES): CCCCCCCCCCCCCO [C-13]
- Effective Bactericidal Concentration of Primary Alcohols against Staphylococcus (Staphylococcus): >800 Micrograms/mL

Structure (SMILES): O=C(O)c1ccccc1 [Benzoic Acid, benzoic acid]
- Growth or No Growth ([1]; Benzoic Acid 625 μg/mL, S. aureus MRSA, Average CFU/mL 8.9 × 10^6): +
- Growth or No Growth ([1]; Benzoic Acid 1,250 μg/mL, S. aureus MRSA, Average CFU/mL 8.9 × 10^6): 0
- Growth or No Growth ([1]; Benzoic Acid 2,500 μg/mL, S. aureus MRSA, Average CFU/mL 8.9 × 10^6): 0
- Growth or No Growth ([1]; Benzoic Acid 5,000 μg/mL, S. aureus MRSA, Average CFU/mL 8.9 × 10^6): 0
- Growth or No Growth ([1]; Benzoic Acid 10,000 μg/mL, S. aureus MRSA, Average CFU/mL 8.9 × 10^6): 0
- MIC of Benzoic Acid in combination ([1]; Dodecanol (20 μ/mL) and Glycerol Monolaurate (15 μ/mL) held constant, MRSA): <312.5 µg/mL
- MIC ([1]; S. aureus MRSA, Average CFU/mL 8.9 × 10^6, benzoic acid alone): 1250 µg/mL
- MIC ([1]; Staphylococcus aureus, S. aureus MRSA, Average CFU/mL 8.9 × 10^6, benzoic acid alone): 1250 µg/mL
- Concentration of the component at which bactericidal activity is still maintained in the three-component combination ([1]; MRSA): 312.5 µg/mL

Structure (SMILES): CCCCCCCCCCCO [C-11]
- Effective Bactericidal Concentration of Primary Alcohols against Staphylococcus (Staphylococcus): 25 Micrograms/mL
